Measured values: patent publication US12030876B2, “Aryl hydrocarbon receptor (AHR) agonists and uses thereof” (Ikena Oncology, Inc., priority 2019, dated 2024)

Experiments:
AHR [1] = molecular target: T1, AHR (Homo sapiens, UniProt P35869); test: DRE-Luciferase Reporter Assay, HepG2 (agonist); type: cell-based; conditions: HepG2, Table 3; read-out: DRE-Luc HepG2 - Agonist: Average EC50
T1 construct: endogenous in cells; host or cells: HepG2 (human), transfected with a DRE-luciferase reporter only
T1 sequence (P35869 11-848): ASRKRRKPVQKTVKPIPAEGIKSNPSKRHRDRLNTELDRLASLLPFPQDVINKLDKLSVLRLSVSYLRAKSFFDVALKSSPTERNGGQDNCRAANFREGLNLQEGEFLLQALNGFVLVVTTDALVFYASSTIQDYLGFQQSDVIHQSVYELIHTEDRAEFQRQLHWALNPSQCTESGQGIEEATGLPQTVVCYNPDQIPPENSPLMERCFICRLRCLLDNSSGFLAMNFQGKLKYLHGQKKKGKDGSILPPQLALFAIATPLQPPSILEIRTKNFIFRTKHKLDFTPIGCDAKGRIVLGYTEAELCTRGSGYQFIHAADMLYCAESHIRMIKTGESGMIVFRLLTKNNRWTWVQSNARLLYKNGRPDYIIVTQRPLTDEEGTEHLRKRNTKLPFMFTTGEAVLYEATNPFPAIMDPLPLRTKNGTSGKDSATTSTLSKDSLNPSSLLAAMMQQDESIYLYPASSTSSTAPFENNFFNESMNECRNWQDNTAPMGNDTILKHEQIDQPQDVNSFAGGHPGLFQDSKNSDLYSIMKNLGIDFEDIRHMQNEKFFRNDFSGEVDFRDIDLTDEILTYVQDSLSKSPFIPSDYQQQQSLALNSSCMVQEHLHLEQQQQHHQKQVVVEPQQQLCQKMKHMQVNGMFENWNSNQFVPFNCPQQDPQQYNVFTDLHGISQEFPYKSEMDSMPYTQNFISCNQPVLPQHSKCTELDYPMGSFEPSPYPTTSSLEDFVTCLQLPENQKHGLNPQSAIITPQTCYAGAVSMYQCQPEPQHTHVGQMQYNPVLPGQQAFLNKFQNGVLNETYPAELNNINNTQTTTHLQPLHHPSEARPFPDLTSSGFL
Procedure, shortened: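 Cells carrying a stably or transiently transfected DRE-luciferase reporter, plated overnight at 37 C, then given agonist for 6, 16 or 24 h before lysis and luciferase read-out. Signal scaled between no ligand (minimum) and activating ligand alone, e.g. TCDD (maximum); EC50 = concentration giving half-maximal luciferase activity.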

AHR [2] = molecular target: T2, AHR (Mus musculus, UniProt P30561); test: DRE-Luciferase Reporter Assay, Hepa1.6 (agonist); type: cell-based, murine; conditions: Hepa1.6, Table 3; read-out: DRE-Luc Hepa1.6 - Agonist: Average EC50
T2 sequence (P30561 1-848 F348L/P471L): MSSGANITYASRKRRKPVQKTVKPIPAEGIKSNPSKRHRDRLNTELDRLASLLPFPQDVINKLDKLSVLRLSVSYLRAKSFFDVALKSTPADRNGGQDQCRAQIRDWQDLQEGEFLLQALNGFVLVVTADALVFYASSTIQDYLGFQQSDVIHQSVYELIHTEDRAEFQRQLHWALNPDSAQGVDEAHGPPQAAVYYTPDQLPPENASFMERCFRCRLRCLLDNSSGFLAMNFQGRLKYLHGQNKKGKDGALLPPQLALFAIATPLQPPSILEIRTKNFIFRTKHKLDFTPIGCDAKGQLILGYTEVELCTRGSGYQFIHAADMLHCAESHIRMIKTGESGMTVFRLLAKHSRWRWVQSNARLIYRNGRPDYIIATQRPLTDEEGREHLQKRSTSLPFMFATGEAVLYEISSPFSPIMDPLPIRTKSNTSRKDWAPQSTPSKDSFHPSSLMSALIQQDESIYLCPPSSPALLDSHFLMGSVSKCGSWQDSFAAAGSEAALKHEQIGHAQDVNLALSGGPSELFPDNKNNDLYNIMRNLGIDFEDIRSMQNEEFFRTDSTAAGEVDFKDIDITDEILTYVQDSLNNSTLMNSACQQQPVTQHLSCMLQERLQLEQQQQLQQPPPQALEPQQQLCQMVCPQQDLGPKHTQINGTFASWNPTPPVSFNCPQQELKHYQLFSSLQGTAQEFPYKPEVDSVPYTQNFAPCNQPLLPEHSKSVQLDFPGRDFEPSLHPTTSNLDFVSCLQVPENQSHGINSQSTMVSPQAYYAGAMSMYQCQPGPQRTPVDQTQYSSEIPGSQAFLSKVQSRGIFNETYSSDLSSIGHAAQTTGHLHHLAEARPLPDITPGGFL
Method: DRE-Luciferase Reporter Assay
AHR binds to Dioxin Responsive Elements (DRE) upstream of genes that it activates. One measure of AHR activity is activation of a reporter gene, such as luciferase, downstream of one or multiple DRE elements. Luciferase activity reflects activation and inhibition of AHR in the cells expressing this reporter.
Murine Hepa1-6 or Hepa-1c1c7 or other murine cell line with a DRE-luciferase reporter either stably or transiently transfected are plated in media in plates (96-well, 384-well or other plates) and incubated overnight at 37 C in a CO2 incubator. Likewise, human HepG2 or other human cell line with a DRE-luciferase reporter either stably or transiently transfected are plated in media in plates (96-well, 384-well or other plates) and incubated overnight at 37 C in a CO2 incubator.
The next day, an AHR agonist compound is added. Cells are incubated for 6, 16 or 24 hours or another time point and then lysed for determination of luciferase activity as a read-out of the AHR activation. Luciferase can be measured with a commercial kit such as the Promega Luciferase kit or any kit or reagents that provide the luciferin substrate for measuring luciferase activity. The level of luciferase with only activating ligand (e.g. such as TCDD, kynurenine, ITE (2-(1H-indole-3-ylcarbonyl)-4-thiazolecarboxylic methyl ester), VAF347, BNF (beta-naphthoflavone), ICZ (6-formylindolo(3,2-b) carbazole or other AHR ligands) added is the maximum signal while the luciferase with no ligand is the minimum signal. EC50s can be determined as the concentration which activates half of the maximum luciferase activity.

SMILES | EC50 (AHR [1]) [nM] | EC50 (AHR [2]) [nM]
CCCOc1cc(-c2csc(Nc3cccc(C(F)(F)F)c3)n2)ccn1 [I-155] | 10 to 100 | > 1000
Nc1cc(-c2csc(Nc3cccc(C(F)(F)F)c3)n2)ccn1 [I-156] | < 10 | < 10
N#Cc1cccc(-c2noc(Nc3cccc(C(F)(F)F)c3)n2)c1 [I-157] | 100 to 1000 | > 1000
[O-][n+]1cccc(-n2cnc(Nc3cccc(C(F)(F)F)c3)n2)c1 [I-158] | 10 to 100 | > 1000
C[N+]1(C)CCN(C(=O)c2cccc(Nc3nc(-c4ccc[n+]([O-])c4)cs3)c2)CC1 [I-159] | > 1000 | > 1000
COC(=O)COc1cc(-c2csc(Nc3cccc(C(F)(F)F)c3)n2)ccn1 [I-160] | < 10 | > 1000
O=C(O)c1cc(/N=N/c2cccc(-c3csc(Nc4cccc(C(F)(F)F)c4)n3)c2)ccc1O [I-162] | > 1000 | > 1000
Nc1cc(-c2csc(Nc3cccc(C(F)(F)F)c3)n2)ccc1F [I-163] | < 10 | < 10
Nc1cncc(-c2csc(Nc3cccc(C(F)(F)F)c3)n2)c1 [I-164] | < 10 | < 10
Nc1cc(-c2csc(Nc3cccc(C(F)(F)F)c3)n2)c(F)cc1F [I-165] | < 10 | < 10
Nc1ccc(F)c(-c2csc(Nc3cccc(C(F)(F)F)c3)n2)c1 [I-166] | < 10 | < 10
COC(=O)/C(C)=N/Nc1cccc(-c2csc(Nc3cccc(C(F)(F)F)c3)n2)c1 [I-167] | 100 to 1000 | 100 to 1000
Nc1ccnc(-c2csc(Nc3cccc(C(F)(F)F)c3)n2)c1 [I-168] | > 1000 | > 1000
Fc1ccc(/N=N/c2ccc(F)c(-c3csc(Nc4cccc(C(F)(F)F)c4)n3)c2)cc1-c1csc(Nc2cccc(C(F)(F)F)c2)n1 [I-169] | 100 to 1000 | 100 to 1000
O=C(Nc1cncc(-c2csc(Nc3cccc(C(F)(F)F)c3)n2)c1)Nc1cncc(-c2csc(Nc3cccc(C(F)(F)F)c3)n2)c1 [I-170] | 10 to 100 | 10 to 100
Fc1ccc(-c2csc(Nc3cccc(C(F)(F)F)c3)n2)cc1/N=N/c1cc(-c2csc(Nc3cccc(C(F)(F)F)c3)n2)ccc1F [I-171] | > 1000 | > 1000
Nc1ccccc1-c1csc(Nc2ccccc2C(F)(F)F)n1 [I-172] | 10 to 100 | > 1000
O=C(O)c1cccc(/N=N/c2cc(-c3csc(Nc4cccc(C(F)(F)F)c4)n3)ccc2F)c1 [I-173] | 100 to 1000 | 100 to 1000
O=C(O)c1cccc(/N=N/c2cc(-c3csc(Nc4cccc(C(F)(F)F)c4)n3)c(F)cc2F)c1 [I-174] | 100 to 1000 | 100 to 1000
FC(F)(F)c1cccc(Nc2nc(-c3cncc(NNc4cncc(-c5csc(Nc6cccc(C(F)(F)F)c6)n5)c4)c3)cs2)c1 [I-175] | 100 to 1000 | 100 to 1000
O=C(O)c1cc(/N=N/c2cccc(-c3csc(Nc4cccc(C(F)(F)F)c4)n3)c2)cc(C(=O)O)c1 [I-176] | > 1000 | > 1000
Nc1ccccc1-c1csc(Nc2cccc(C(F)(F)F)c2)n1 [I-177] | 10 to 100 | < 10
